Laboratory results taken from ChEMBL document CHEMBL4673314, “Stabilization Strategies for Linear Minigastrin Analogues: Further Improvements via the Inclusion of Proline into the Peptide Sequence” (J Med Chem, 2020).
Non-standard residues stand in square brackets, D forms with d. Residues, ends and D or L forms follow the SMILES beside them. *: point of attachment. DOTA = O=C(O)CN1CCN(CC(=O)O)CCN(CC(=O)*)CCN(CC(=O)O)CC1; 1Nal = N[C@@H](Cc1cccc2ccccc12)C(=O)O; NMeNle = CCCC[C@H](NC)C(=O)O

Experiment: Retention time of the compound by HPLC method
Assay type: physicochemical

| Retention_time | SMILES |
| --- | --- |
| 16.8 min | CCCC[C@@H](C(=O)N[C@@H](CC(=O)O)C(=O)N[C@@H](Cc1cccc2ccccc12)C(N)=O)N(C)C(=O)[C@H](Cc1c[nH]c2ccccc12)NC(=O)[C@@H]1CCCN1C(=O)[C@H](Cc1ccc(O)cc1)NC(=O)[C@H](C)NC(=O)[C@@H](CCC(=O)O)NC(=O)CN1CCN(CC(=O)O)CCN(CC(=O)O)CCN(CC(=O)O)CC1 ({DOTA}-[dE]AYPW[NMeNle]D[1Nal]-NH2) |
| 16.9 min | CCCC[C@@H](C(=O)N[C@@H](CC(=O)O)C(=O)N[C@@H](Cc1cccc2ccccc12)C(N)=O)N(C)C(=O)[C@H](Cc1c[nH]c2ccccc12)NC(=O)CNC(=O)[C@H](Cc1ccc(O)cc1)NC(=O)[C@@H]1CCCN1C(=O)[C@@H](CCC(=O)O)NC(=O)CN1CCN(CC(=O)O)CCN(CC(=O)O)CCN(CC(=O)O)CC1 ({DOTA}-[dE]PYGW[NMeNle]D[1Nal]-NH2) |
| 16.9 min | CCCC[C@@H](C(=O)N[C@@H](CC(=O)O)C(=O)N[C@@H](Cc1cccc2ccccc12)C(N)=O)N(C)C(=O)[C@H](Cc1c[nH]c2ccccc12)NC(=O)CNC(=O)[C@@H]1CCCN1C(=O)[C@H](Cc1ccc(O)cc1)NC(=O)[C@@H](CCC(=O)O)NC(=O)CN1CCN(CC(=O)O)CCN(CC(=O)O)CCN(CC(=O)O)CC1 ({DOTA}-[dE]YPGW[NMeNle]D[1Nal]-NH2) |
